What was measured:
Format in all cases: in vivo, mouse
[1] = tested on: LPS-induced airway neutrophilia in mice; assay: LPS-induced airway neutrophil accumulation in mice; conditions: i-t; for Neutrophil numbers in BALF: mean ± SEM
Experimental: Non-fasted BALB/c mice (6-8 weeks old) were dosed with vehicle or with test compound by intra-tracheal administration (dose volume 20 μL) at time points T=−2 hr, −8 hr, or −12 hr with respect to the start of LPS treatment. The LPS was prepared in a solution of 0.5 mg/mL and aerosolised using a De Vibliss ultrasonic nebuliser 2000 (7 mL during 30 min exposure). At eight hr after LPS challenge, the trachea was cannulated and bronchoalveolar lavage fluid (BALF) extracted by infusing and then withdrawing PBS (1 mL) into the lungs via the tracheal catheter. This procedure was repeated to give a yield of approximately 2 mL lavage fluid. Total cell numbers in the BALF samples were measured using a haemocytometer. Cytospin smears of the BALF samples were prepared by centrifugation at 1200 rpm for 2 min at RT and stained using a DiffQuik stain system (Dade Behring) for differential cell counts. Cells were counted using oil immersion microscopy. Data are expressed as neutrophil number of cells per mL of BALF (mean±S.E.M).

[2] = tested on: poly-I:C-induced cell accumulation in mice airways; assay: Poly-I:C-induced cell accumulation in mice; conditions: for % inhibition, Macrophages in BALF / % inhibition, Neutrophils in BALF / Cell numbers in BALF, Macrophages / Cell numbers in BALF, Neutrophils: mice, poly I:C, intra-nasal; for Cell numbers in BALF, Macrophages / Cell numbers in BALF, Neutrophils: mean ± SEM
Experimental: Specific pathogen-free A/J mice (males, 5 weeks old) were dosed with poly (I:C)-LMW (1 mg/mL, 40 μL) (InvivoGen, San Diego, Calif., USA) intranasally twice daily for 3 days under anaesthasia (3% isoflurane). Test substances were dosed intra-nasally (50 μL in 10% DMSO/isotonic saline vehicle) 2 hr before each poly-I:C treatment. At 24 hr after the last poly-I:C challenge, animals were anesthetized, the trachea was cannulated and bronchial alveolar lavage (BAL) was obtained by instilling into and then withdrawing from the lungs, isotonic saline (100 mL/kg). Total cell numbers in the BALF samples were measured using a haemocytometer under a phase-contrast microscope.
The proportions of alveolar macrophages and neutrophils were determined by FACS analysis using anti-mouse MOMA2-FITC (macrophage) or anti-mouse 7/4-FITC (neutrophil). Cells were suspended in PBS and incubated with anti-MOMA2-FITC (2 μg/mL, Catalogue no SM065F, Acris Antibodies GmbH, Herford, Germany) or anti-7/4-FITC (2 μg/mL, Catalogue no CL050F, Acris Antibodies GmbH, Herford, Germany) for 30 min at 30° C., and then counterstained with propidium iodide (2 μg/mL) to allow exclusion of necrotic cells. The cells were washed with PBS, and transferred to FACS tubes. Samples was set in a flow cytometer (ALTRA II; Beckman Coulter Japan, Tokyo, Japan), and a single-parameter FL2 [PMT2] (FITC) histogram with log x-axis was plotted to illustrate relative intensity of FITC, Data files were stored for subsequent analysis using Kaluza analysis software (ver. 1.2) to calculate the proportion of each cell type.

[3] = tested on: cigarette smoke-induced cell accumulation and biomarkers in murine BALF; assay: Cigarette smoke model; conditions: for % inhibition, Macrophages in BAL / % inhibition, Neutrophils in BAL / Cell numbers in BAL, Macrophages / Cell numbers in BAL, Neutrophils: mice, CS, intra-nasal; for Cell numbers in BAL, Macrophages / Cell numbers in BAL, Neutrophils: mean ± SEM; for Inhibition (%) of CXCL1 in BALF / Inhibition (%) of IL-17 in BALF / Inhibition (%) of MCP-1 in BALF / Inhibition (%) of MDA in BALF / Inhibition (%) of Osteopontin in BALF / Inhibition (%) of TNF α in BALF: with respect to tobacco
Experimental: A/J mice (males, 5 weeks old) were exposed to cigarette smoke (4% cigarette smoke, diluted with compressed air) for 30 min/day for 11 days using a Tobacco Smoke Inhalation Experiment System for small animals (Model SIS-CS; Sibata Scientific Technology, Tokyo, Japan). Test substances were administered once daily for 3 days after the final cigarette smoke exposure (intra-nasal dose comprising 35 μL of solution in 50% DMSO/isotonic saline).
At 12 hr after administration of the last dose, animals were anesthetized, the trachea was cannulated and bronchial alveolar lavage (BAL) was carried out by the instillation into and then withdawal from the lungs, of PBS (100 mL/kg). Total cell numbers in the BALF samples were measured using a haemocytometer under a phase-contrast microscope. The proportions of alveolar macrophages and neutrophils were determined by FACS analysis using anti-mouse MOMA2-FITC (macrophage) or anti-mouse 7/4 (neutrophil).
Cells were suspended in PBS and were incubated with anti-MOMA2-FITC (2 μg/mL, Catalogue no SM065F, Acris Antibodies GmbH, Herford, Germany) or anti-7/4-FITC (2 μg/mL, Catalogue no CL050F, Acris Antibodies GmbH, Herford, Germany) for 30 min at 30° C., and also counterstained with propidium iodide (2 μg/mL) to allow exclusion of necrotic cells. The cells were washed with PBS, and transferred to FACS tubes. Samples was set in a flow cytometer (ALTRA II; Beckman Coulter Japan, Tokyo, Japan), and a single-parameter FL2 [PMT2] (FITC) histogram with log x-axis was plotted to illustrate relative intensity of FITC.
Data files are stored for subsequent analysis using Kaluza analysis software (ver. 1.2) to calculate the proportion of each cell type. The levels of CXCL1(KC), MCP1, TNFα, IL-17 or osteopontin in BALF were determined using Quentikine® mouse KC, MCP1, TNFα, IL-17 or osteopontin ELISA kit (R&D systems, Inc., Minneapolis, Minn., USA). The presence of malondialdehyde was measured using OxiSelect® TBARS Assay Kit (MDA Quantitation; Cell Biolabs Inc, San Diego, Calif., USA).

In the case of `COCCOCCOCC#Cc1cccc2nc(Cn3nc(-c4cc(O)cc(F)c4)c4c(N)ncnc43)n(Cc3ccccc3C(F)(F)F)c(=O)c12` [Compound (I), 2-((4-Amino-3-(3-fluoro-5-hydroxyphenyl)-1H-pyrazolo[3,4-d]pyrimidin-1-yl)methyl)-5-(3-(2-(2-methoxyethoxy)ethoxy)prop-1-yn-1-yl)-3-(2-(trifluoromethyl)benzyl)quinazolin-4(3H)-one], the “% inhibition of neutrophil numbers in BALF” value ([1]; 0.05 mg/mL, pre-dose 2 hr) is reported as 19%, the “Neutrophil numbers in BALF” value ([1]; 0.05 mg/mL, pre-dose 2 hr) is reported as 13.8 ± 2.5 x10^5/mL and the “% inhibition of neutrophil numbers in BALF” value ([1]; 0.2 mg/mL, pre-dose 2 hr) is reported as 53%. For the same compound, the “Neutrophil numbers in BALF” value ([1]; 0.2 mg/mL, pre-dose 2 hr) was 8.0 ± 1.4 x10^5/mL, the “% inhibition of neutrophil numbers in BALF” value ([1]; 0.2 mg/mL, pre-dose 8 hr) was 45% and the “Neutrophil numbers in BALF” value ([1]; 0.2 mg/mL, pre-dose 8 hr) was 9.4 ± 2.0 x10^5/mL. For the same compound, the “% inhibition of neutrophil numbers in BALF” value ([1]; 0.2 mg/mL, pre-dose 12 h) was 23%, the “Neutrophil numbers in BALF” value ([1]; 0.2 mg/mL, pre-dose 12 h) was 13.1 ± 2.5 x10^5/mL and the “% inhibition of neutrophil numbers in BALF” value ([1]; 1.0 mg/mL, pre-dose 2 hr) was 68%. The “Neutrophil numbers in BALF” value ([1]; 1.0 mg/mL, pre-dose 2 hr) was 5.5 ± 0.9 x10^5/mL, the “potency versus compound A on poly-I:C-induced cell accumulation (in words)” value ([2]; direct comparison) was “significantly greater potency than compound A” and the “% inhibition, Macrophages in BALF” value ([2]; 0.002 mg/mL) was 49%. For the same compound, the “% inhibition, Neutrophils in BALF” value ([2]; 0.002 mg/mL) was 43%, the “Cell numbers in BALF, Macrophages” value ([2]; 0.002 mg/mL) was 11.5 ± 0.2 x10^4/mL and the “Cell numbers in BALF, Neutrophils” value ([2]; 0.002 mg/mL) was 7.3 ± 0.3 x10^4/mL. The “% inhibition, Macrophages in BALF” value ([2]; 0.02 mg/mL) was 69%, the “% inhibition, Neutrophils in BALF” value ([2]; 0.02 mg/mL) was 65% and the “Cell numbers in BALF, Macrophages” value ([2]; 0.02 mg/mL) was 8.3 ± 0.3 x10^4/mL. The “Cell numbers in BALF, Neutrophils” value ([2]; 0.02 mg/mL) was 5.0 ± 0.2 x10^4/mL, the “% inhibition, Macrophages in BALF” value ([2]; 0.2 mg/mL) was 79% and the “% inhibition, Neutrophils in BALF” value ([2]; 0.2 mg/mL) was 77%. The “Cell numbers in BALF, Macrophages” value ([2]; 0.2 mg/mL) was 6.8 ± 0.3 x10^4/mL, the “Cell numbers in BALF, Neutrophils” value ([2]; 0.2 mg/mL) was 3.8 ± 0.2 x10^4/mL and the “potency versus compound A on cigarette-smoke induced cell accumulation in murine BALF (in words)” value ([3]; contemporaneous study) was “more potent inhibitor”. The “% inhibition, Macrophages in BAL” value ([3]; 0.02 mg/mL) was 32%, the “% inhibition, Neutrophils in BAL” value ([3]; 0.02 mg/mL) was 26% and the “Cell numbers in BAL, Macrophages” value ([3]; 0.02 mg/mL) was 13.6 ± 0.2 x10^4/mL. The “Cell numbers in BAL, Neutrophils” value ([3]; 0.02 mg/mL) was 8.6 ± 0.2 x10^4/mL, the “% inhibition, Macrophages in BAL” value ([3]; 0.2 mg/mL) was 63% and the “% inhibition, Neutrophils in BAL” value ([3]; 0.2 mg/mL) was 54%. For the same compound, the “Cell numbers in BAL, Macrophages” value ([3]; 0.2 mg/mL) was 9.5 ± 0.2 x10^4/mL, the “Cell numbers in BAL, Neutrophils” value ([3]; 0.2 mg/mL) was 6.0 ± 0.1 x10^4/mL and the “% inhibition, Macrophages in BAL” value ([3]; 2 mg/mL) was 79%. For the same compound, the “% inhibition, Neutrophils in BAL” value ([3]; 2 mg/mL) was 68%, the “Cell numbers in BAL, Macrophages” value ([3]; 2 mg/mL) was 7.4 ± 0.3 x10^4/mL and the “Cell numbers in BAL, Neutrophils” value ([3]; 2 mg/mL) was 4.6 ± 0.1 x10^4/mL. For the same compound, the “Inhibition (%) of CXCL1 in BALF” value ([3]; Compound (I) 0.02 mg/mL) was 32%, the “Inhibition (%) of IL-17 in BALF” value ([3]; Compound (I) 0.02 mg/mL) was 27% and the “Inhibition (%) of MCP-1 in BALF” value ([3]; Compound (I) 0.02 mg/mL) was 28%. The “Inhibition (%) of MDA in BALF” value ([3]; Compound (I) 0.02 mg/mL) was 25%, the “Inhibition (%) of Osteopontin in BALF” value ([3]; Compound (I) 0.02 mg/mL) was 22% and the “Inhibition (%) of TNF α in BALF” value ([3]; Compound (I) 0.02 mg/mL) was 22%. For the same compound, the “Inhibition (%) of CXCL1 in BALF” value ([3]; Compound (I) 0.2 mg/mL) was 52%, the “Inhibition (%) of IL-17 in BALF” value ([3]; Compound (I) 0.2 mg/mL) was 41% and the “Inhibition (%) of MCP-1 in BALF” value ([3]; Compound (I) 0.2 mg/mL) was 45%. For the same compound, the “Inhibition (%) of MDA in BALF” value ([3]; Compound (I) 0.2 mg/mL) was 42%, the “Inhibition (%) of Osteopontin in BALF” value ([3]; Compound (I) 0.2 mg/mL) was 44% and the “Inhibition (%) of TNF α in BALF” value ([3]; Compound (I) 0.2 mg/mL) was 38%. The “Inhibition (%) of CXCL1 in BALF” value ([3]; Compound (I) 2 mg/mL) was 71%, the “Inhibition (%) of IL-17 in BALF” value ([3]; Compound (I) 2 mg/mL) was 60% and the “Inhibition (%) of MCP-1 in BALF” value ([3]; Compound (I) 2 mg/mL) was 78%. The “Inhibition (%) of MDA in BALF” value ([3]; Compound (I) 2 mg/mL) was 64%, the “Inhibition (%) of Osteopontin in BALF” value ([3]; Compound (I) 2 mg/mL) was 63% and the “Inhibition (%) of TNF α in BALF” value ([3]; Compound (I) 2 mg/mL) was 62%.
